Laboratory results taken from patent publication US20220289715A1, “PESTICIDALLY ACTIVE PYRAZINE-AMIDE COMPOUNDS” (priority 2019, published 2022).

Assays:
Format in all cases: in vivo
[1] = tested on: Spodoptera littoralis (Egyptian Cotton Leaf Worm); experiment: Example B6: Spodoptera littoralis, spray on cotton leaf discs; settings: foliar, 72 h, application rate of 200 ppm, L1 larvae, 3 days after infestation, read-out: control in at least one of the three categories (mortality, anti-feedant effect, or growth inhibition)
Method: Example B6: Spodoptera littoralis (Egyptian Cotton Leaf Worm)
Cotton leaf discs were placed onto agar in 24-well microtiter plates and sprayed with aqueous test solutions prepared from 10,000 ppm DMSO stock solutions. After drying the leaf discs were infested with five L1 larvae. The samples were assessed for mortality, anti-feeding effect, and growth inhibition in comparison to untreated samples 3 days after infestation. Control of Spodoptera littoralis by a test sample is given when at least one of the categories mortality, anti-feedant effect, and growth inhibition is higher than the untreated sample.

[2] = tested on: Diabrotica balteata (Corn Root Worm); experiment: Example B1: Diabrotica balteata, spray on maize sprouts; settings: 96 h, application rate of 200 ppm, L2 larvae, 4 days after infestation, read-out: control in at least one of the two categories (mortality or growth inhibition)
Method: Example B1: Diabrotica balteata (Corn Root Worm)
Maize sprouts placed onto an agar layer in 24-well microtiter plates were treated with aqueous test solutions prepared from 10,000 ppm DMSO stock solutions by spraying. After drying, the plates were infested with L2 larvae (6 to 10 per well). The samples were assessed for mortality and growth inhibition in comparison to untreated samples 4 days after infestation.
(§1) The following compounds gave an effect of at least 80% control in at least one of the two categories (mortality or growth inhibition) at an application rate of 200 ppm: […]

[3] = tested on: Plutella xylostella (Diamondback Moth); experiment: Example B9: Plutella xylostella, artificial diet, 96-well; settings: 216 h, application rate of 500 ppm, eggs/L1 larvae, 9 days after infestation
Method: Example B9: Plutella xylostella (Diamondback Moth)
96-well microtiter plates containing artificial diet were treated with aqueous test solutions, prepared from 10,000 ppm DMSO stock solutions, by a liquid handling robot. After drying, eggs (˜30 per well) were infested onto a netted lid which was suspended above the diet. The eggs hatch and L1 larvae move down to the diet. The samples were assessed for mortality 9 days after infestation.
The following compounds gave an effect of at least 80% mortality at an application rate of 500 ppm: […]

[4] = tested on: Chilo suppressalis (Striped Rice Stemborer); experiment: Example B3: Chilo suppressalis, artificial diet; settings: 144 h, application rate of 200 ppm, L2 larvae, 6 days after infestation, read-out: control in at least one of the three categories (mortality, anti-feedant effect, or growth inhibition)
Method: Example B3: Chilo suppressalis (Striped Rice Stemborer)
24-well microtiter plates with artificial diet were treated with aqueous test solutions prepared from 10,000 ppm DMSO stock solutions by pipetting. After drying, the plates were infested with L2 larvae (6-8 per well). The samples were assessed for mortality, anti-feeding effect, and growth inhibition in comparison to untreated samples 6 days after infestation. Control of Chilo suppressalis by a test sample is given when at least one of the categories mortality, anti-feedant effect, and growth inhibition is higher than the untreated sample.

[5] = tested on: Plutella xylostella (Diamond Back Moth); experiment: Example B4: Plutella xylostella, artificial diet, 24-well; settings: 192 h, application rate of 200 ppm, eggs, 8 days after infestation, read-out: control in at least one of the two categories (mortality or growth inhibition)
Method: Example B4: Plutella xylostella (Diamond Back Moth)
24-well microtiter plates with artificial diet were treated with aqueous test solutions prepared from 10,000 ppm DMSO stock solutions by pipetting. After drying, Plutella eggs were pipetted through a plastic stencil onto a gel blotting paper and the plate was closed with it. The samples were assessed for mortality and growth inhibition in comparison to untreated samples 8 days after infestation.
as §1

CC(NC(=O)c1cc(Br)cc(Br)c1)c1nccnc1-n1nccn1 (centres unmarked) [Compound P38, 3,5-dibromo-N-[1-[3-(triazol-2-yl)pyrazin-2-yl]ethyl]benzamide]
≥ 80%: percent control (mortality, anti-feedant effect or growth inhibition) at 200 ppm [1] | percent control (mortality or growth inhibition) at 200 ppm [2] | mortality at 500 ppm [3] | percent control (mortality, anti-feedant effect or growth inhibition) at 200 ppm [4] | percent control (mortality or growth inhibition) at 200 ppm [5]

CC(NC(=O)c1cc(Br)cc(OC(F)(F)F)c1)c1nccnc1-n1nccn1 (centres unmarked) [Compound P36, 3-bromo-N-[1-[3-(triazol-2-yl)pyrazin-2-yl]ethyl]-5-(trifluoromethoxy)benzamide]
≥ 80%: percent control (mortality, anti-feedant effect or growth inhibition) at 200 ppm [1] | percent control (mortality or growth inhibition) at 200 ppm [2] | mortality at 500 ppm [3] | percent control (mortality, anti-feedant effect or growth inhibition) at 200 ppm [4] | percent control (mortality or growth inhibition) at 200 ppm [5]

CC(NC(=O)c1cc(C(F)(F)F)cc(C(F)(F)F)c1)c1nccnc1-n1cc(C2CC2)nn1 (centres unmarked) [Compound P42, N-[1-[3-(4-cyclopropyltriazol-1-yl)pyrazin-2-yl]ethyl]-3,5-bis(trifluoromethyl)benzamide]
≥ 80%: percent control (mortality, anti-feedant effect or growth inhibition) at 200 ppm [1] | mortality at 500 ppm [3] | percent control (mortality, anti-feedant effect or growth inhibition) at 200 ppm [4] | percent control (mortality or growth inhibition) at 200 ppm [5]

CC(NC(=O)c1cc(C(F)(F)F)cc(C(F)(F)F)c1)c1nccnc1-n1cccn1 (centres unmarked) [Compound P45]
≥ 80%: percent control (mortality or growth inhibition) at 200 ppm [2]

CC(NC(=O)c1cc(OCC(F)(F)F)cc(C(F)(F)F)c1)c1nccnc1-n1nccn1 (centres unmarked) [Compound P8, N-[1-[3-(triazol-2-yl)pyrazin-2-yl]ethyl]-3-(2,2,2-trifluoroethoxy)-5-(trifluoromethyl)benzamide]
≥ 80%: percent control (mortality, anti-feedant effect or growth inhibition) at 200 ppm [1] | percent control (mortality or growth inhibition) at 200 ppm [2] | percent control (mortality, anti-feedant effect or growth inhibition) at 200 ppm [4] | percent control (mortality or growth inhibition) at 200 ppm [5]

CC(NC(=O)c1cc(C(F)(F)F)cc(C(F)(F)F)c1)c1nccnc1-n1ncc(I)n1 (centres unmarked) [Compound P53, N-[1-[3-(4-iodotriazol-2-yl)pyrazin-2-yl]ethyl]-3,5-bis(trifluoromethyl)benzamide]
≥ 80%: percent control (mortality, anti-feedant effect or growth inhibition) at 200 ppm [1] | percent control (mortality or growth inhibition) at 200 ppm [2] | percent control (mortality, anti-feedant effect or growth inhibition) at 200 ppm [4] | percent control (mortality or growth inhibition) at 200 ppm [5]

CC(NC(=O)c1cc(F)cc(Cl)c1)c1nccnc1-n1nccn1 (centres unmarked) [Compound P25, 3-chloro-5-fluoro-N-[1-[3-(triazol-2-yl)pyrazin-2-yl]ethyl]benzamide]
≥ 80%: percent control (mortality or growth inhibition) at 200 ppm [2] | mortality at 500 ppm [3] | percent control (mortality or growth inhibition) at 200 ppm [5]

Cc1cc(C)cc(C(=O)NC(C)c2nccnc2-n2nccn2)c1 (centres unmarked) [Compound P24, 3,5-dimethyl-N-[1-[3-(triazol-2-yl)pyrazin-2-yl]ethyl]benzamide]
≥ 80%: mortality at 500 ppm [3]

CC(c1nccnc1-n1cncn1)N(CC1CC1)C(=O)c1cc(C(F)(F)F)cc(C(F)(F)F)c1 (centres unmarked) [Compound P48, N-(cyclopropylmethyl)-N-[1-[3-(1,2,4-triazol-1-yl)pyrazin-2-yl]ethyl]-3,5-bis(trifluoromethyl)benzamide]
≥ 80%: percent control (mortality, anti-feedant effect or growth inhibition) at 200 ppm [1] | percent control (mortality or growth inhibition) at 200 ppm [2] | mortality at 500 ppm [3] | percent control (mortality or growth inhibition) at 200 ppm [5]

Cc1cnn(-c2nccnc2C(C)NC(=O)c2cc(C(F)(F)F)cc(C(F)(F)F)c2)n1 (centres unmarked) [Compound P1, N-[1-[3-(4-methyltriazol-2-yl)pyrazin-2-yl]ethyl]-3,5-bis(trifluoromethyl)benzamide]
≥ 80%: mortality at 500 ppm [3] | percent control (mortality, anti-feedant effect or growth inhibition) at 200 ppm [4] | percent control (mortality or growth inhibition) at 200 ppm [5]

CC(NC(=O)c1cc(C(F)(F)F)cc(C(F)(F)F)c1)c1nccnc1-n1ccnn1 (centres unmarked) [Compound P44, N-[1-[3-(triazol-1-yl)pyrazin-2-yl]ethyl]-3,5-bis(trifluoromethyl)benzamide]
≥ 80%: percent control (mortality, anti-feedant effect or growth inhibition) at 200 ppm [1] | percent control (mortality or growth inhibition) at 200 ppm [2] | percent control (mortality, anti-feedant effect or growth inhibition) at 200 ppm [4] | percent control (mortality or growth inhibition) at 200 ppm [5]

CC(c1nccnc1-n1nccn1)N(CC1CC1)C(=O)c1cc(C(F)(F)F)cc(C(F)(F)F)c1 (centres unmarked) [Compound P50, N-(cyclopropylmethyl)-N-[1-[3-(triazol-2-yl)pyrazin-2-yl]ethyl]-3,5-bis(trifluoromethyl)benzamide]
≥ 80%: percent control (mortality, anti-feedant effect or growth inhibition) at 200 ppm [1] | percent control (mortality or growth inhibition) at 200 ppm [2] | mortality at 500 ppm [3] | percent control (mortality or growth inhibition) at 200 ppm [5]

CC(=O)c1cnn(-c2nccnc2C(C)NC(=O)c2cc(C(F)(F)F)cc(C(F)(F)F)c2)n1 (centres unmarked) [Compound P57, N-[1-[3-(4-acetyltriazol-2-yl)pyrazin-2-yl]ethyl]-3,5-bis(trifluoromethyl)benzamide]
≥ 80%: percent control (mortality, anti-feedant effect or growth inhibition) at 200 ppm [4] | percent control (mortality or growth inhibition) at 200 ppm [5]

Cc1cnc(C(C)NC(=O)c2cc(C(F)(F)F)cc(C(F)(F)F)c2)c(-n2nccn2)n1 (centres unmarked) [Compound P18, N-[1-[5-methyl-3-(triazol-2-yl)pyrazin-2-yl]ethyl]-3,5-bis(trifluoromethyl)benzamide]
≥ 80%: percent control (mortality, anti-feedant effect or growth inhibition) at 200 ppm [4] | percent control (mortality or growth inhibition) at 200 ppm [5]

CC(=O)c1cn(-c2nccnc2C(C)NC(=O)c2cc(C(F)(F)F)cc(C(F)(F)F)c2)nn1 (centres unmarked) [Compound P55, N-[1-[3-(4-acetyltriazol-1-yl)pyrazin-2-yl]ethyl]3,5-bis(trifluoromethyl)benzamide]
≥ 80%: percent control (mortality, anti-feedant effect or growth inhibition) at 200 ppm [4] | percent control (mortality or growth inhibition) at 200 ppm [5]

COc1cc(C(=O)NC(C)c2nccnc2-n2nccn2)cc(Cl)n1 (centres unmarked) [Compound P32, 2-chloro-6-methoxy-N-[1-[3-(triazol-2-yl)pyrazin-2-yl]ethyl]pyridine-4-carboxamide]
≥ 80%: mortality at 500 ppm [3]

CO/N=C(\C)c1cnn(-c2nccnc2C(C)NC(=O)c2cc(C(F)(F)F)cc(C(F)(F)F)c2)n1 (centres unmarked) [Compound P54, N-[1-[3-[4-[(E)-N-methoxy-C-methyl-carbonimidoyl]triazol-2-yl]pyrazin-2-yl]ethyl]-3,5-bis(trifluoromethyl)benzamide]
≥ 80%: percent control (mortality, anti-feedant effect or growth inhibition) at 200 ppm [1] | percent control (mortality or growth inhibition) at 200 ppm [2] | percent control (mortality or growth inhibition) at 200 ppm [5]

CC(NC(=O)c1cc(C(F)(F)F)cc(C(F)(F)F)c1)c1nccnc1-n1nnc2ccccc21 (centres unmarked) [Compound P51, N-[1-[3-(benzotriazol-1-yl)pyrazin-2-yl]ethyl]-3,5-bis(trifluoromethyl)benzamide]
≥ 80%: mortality at 500 ppm [3] | percent control (mortality or growth inhibition) at 200 ppm [5]

CC(NC(=O)c1cc(C(F)(F)F)cc(C(F)(F)F)c1)c1nccnc1-n1cc(C#N)cn1 (centres unmarked) [Compound P47, N-[1-[3-(4-cyanopyrazol-1-yl)pyrazin-2-yl]ethyl]-3,5-bis(trifluoromethyl)benzamide]
≥ 80%: percent control (mortality, anti-feedant effect or growth inhibition) at 200 ppm [1] | percent control (mortality or growth inhibition) at 200 ppm [2] | percent control (mortality, anti-feedant effect or growth inhibition) at 200 ppm [4] | percent control (mortality or growth inhibition) at 200 ppm [5]

Cc1cn(-c2nccnc2C(C)NC(=O)c2cc(C(F)(F)F)cc(C(F)(F)F)c2)nn1 (centres unmarked) [Compound P41, N-[1-[3-(4-methyltriazol-1-yl)pyrazin-2-yl]ethyl]-3,5-bis(trifluoromethyl)benzamide]
≥ 80%: percent control (mortality, anti-feedant effect or growth inhibition) at 200 ppm [1] | mortality at 500 ppm [3] | percent control (mortality, anti-feedant effect or growth inhibition) at 200 ppm [4] | percent control (mortality or growth inhibition) at 200 ppm [5]
